# Results: PMC10138554, “Insights into the Microbicidal, Antibiofilm, Antioxidant and Toxicity Profile of New O-Aryl-Carbamoyl-Oxymino-Fluorene Derivatives” (International Journal of Molecular Sciences, 2023)
# Tested on: E. coli ATCC 25922
# Experiment: MIC assay, serial two-fold microdilution in liquid medium
# Assay type: cell-based
# Details: Escherichia coli, ATCC25922; E. coli ATCC 25922, planktonic, 37 °C, 24 h; read-out: minimum inhibitory concentration (MIC)
# Protocol: (§1) The inhibitory activity of the obtained compounds has been assessed on five microbial strains, respectively: E. coli ATCC 25922, P. aeruginosa ATCC 27853, S. aureus ATCC 25923, E. faecalis ATCC 29212 and C. albicans ATCC 90029, in a planktonic and adherent growth state.
# (§2) The MIC assay was performed by the serial two-fold microdilutions in a liquid medium, using a concentration range from 5 to 0.009 mg/mL and microbial suspensions of 0.5 MacFarland density. The wells containing only the microbial culture served as positive control and those containing the sterile culture medium as the negative control. The MIC values were read after incubation at 37 °C for 24 h.
row,SMILES,MIC [µg/mL]
1,"O=C(Nc1ccccc1)ON=C1c2ccccc2-c2ccccc21 [Compound 1a, 9-(phenylcarbamoyloxymino)fluoren]",2500
2,"Cc1cccc(NC(=O)ON=C2c3ccccc3-c3ccccc32)c1 [Compound 1b, 9-((3-methyl-phenyl)carbamoyloximino)fluoren]",5000

# Tested on: P. aeruginosa ATCC 27853
# Experiment: as above
# Assay type: cell-based
# Details: Pseudomonas aeruginosa, ATCC27853; P. aeruginosa ATCC 27853, planktonic, 37 °C, 24 h; read-out: minimum inhibitory concentration (MIC)
# Protocol: as §1, §2
row,SMILES,MIC [µg/mL]
1,"O=C(Nc1ccccc1)ON=C1c2ccccc2-c2ccccc21 [Compound 1a, 9-(phenylcarbamoyloxymino)fluoren]",2500
2,"Cc1cccc(NC(=O)ON=C2c3ccccc3-c3ccccc32)c1 [Compound 1b, 9-((3-methyl-phenyl)carbamoyloximino)fluoren]",2500

# Tested on: S. aureus ATCC 25923
# Experiment: as above
# Assay type: cell-based
# Details: Staphylococcus aureus, ATCC25923; S. aureus ATCC 25923, planktonic, 37 °C, 24 h; read-out: minimum inhibitory concentration (MIC)
# Protocol: as §1, §2
row,SMILES,MIC [µg/mL]
1,"O=C(Nc1ccccc1)ON=C1c2ccccc2-c2ccccc21 [Compound 1a, 9-(phenylcarbamoyloxymino)fluoren]",2500
2,"Cc1cccc(NC(=O)ON=C2c3ccccc3-c3ccccc32)c1 [Compound 1b, 9-((3-methyl-phenyl)carbamoyloximino)fluoren]",2500

# Tested on: E. faecalis ATCC 29212
# Experiment: Anti-biofilm activity assay, purple violet microtiter method
# Assay type: cell-based
# Details: E. faecalis ATCC 29212 biofilm
# Protocol: as §1
# (§3) The anti-biofilm activity assay was performed by the purple violet microtiter method, as previously described, allowing us to determine the minimal biofilm inhibitory concentration (MBEC). The same range of concentrations, as in the MIC assay, i.e., from 5 to 0.009 mg/mL has been tested.
row,SMILES,minimum biofilm inhibitory concentration (MBIC) [mg/mL]
1,"O=C(Nc1ccccc1)ON=C1c2ccccc2-c2ccccc21 [Compound 1a, 9-(phenylcarbamoyloxymino)fluoren]",1.25
2,"Cc1cccc(NC(=O)ON=C2c3ccccc3-c3ccccc32)c1 [Compound 1b, 9-((3-methyl-phenyl)carbamoyloximino)fluoren]",1.25

# Tested on: S. aureus ATCC 25923
# Experiment: as above
# Assay type: cell-based, Staphylococcus aureus
# Details: S. aureus ATCC 25923 biofilm
# Protocol: as §1, §3
row,SMILES,minimum biofilm inhibitory concentration (MBIC) [mg/mL]
1,"O=C(Nc1ccccc1)ON=C1c2ccccc2-c2ccccc21 [Compound 1a, 9-(phenylcarbamoyloxymino)fluoren]",5
2,"Cc1cccc(NC(=O)ON=C2c3ccccc3-c3ccccc32)c1 [Compound 1b, 9-((3-methyl-phenyl)carbamoyloximino)fluoren]",2.5

# Tested on: E. coli ATCC 25922
# Experiment: as above
# Assay type: cell-based, Escherichia coli
# Details: E. coli ATCC 25922 biofilm
# Protocol: as §1, §3
row,SMILES,minimum biofilm inhibitory concentration (MBIC) [mg/mL]
1,"O=C(Nc1ccccc1)ON=C1c2ccccc2-c2ccccc21 [Compound 1a, 9-(phenylcarbamoyloxymino)fluoren]",0.625
2,"Cc1cccc(NC(=O)ON=C2c3ccccc3-c3ccccc32)c1 [Compound 1b, 9-((3-methyl-phenyl)carbamoyloximino)fluoren]",0.078

# Tested on: E. faecalis ATCC 29212
# Experiment: Flow cytometry (FCM) membrane depolarization, DiBAC4(3)
# Assay type: cell-based
# Details: E. faecalis ATCC 29212; subinhibitory concentration tested 2.5 mg/mL; DiBAC4, 18–24 h
# Protocol: (§4) The investigation of potential mechanisms of antimicrobial action by flow cytometry (FCM) was performed on microbial cultures obtained after 18–24 h of microbial cell incubation in the presence of subinhibitory concentrations of the analyzed compounds. Thus, microbial suspensions with a density of approximately 10^6 CFU/mL were prepared in sterile saline phosphate buffer from exponentially growing microbial cultures, obtained on a solid culture medium. Subinhibitory concentrations of the compounds were prepared in Muller–Hinton liquid culture medium and inoculated with an equal amount of microbial suspension and incubated for 18–24 h at 37 °C.
# (§5) Microbial suspensions inoculated in a liquid medium were used as growth control. After incubation, the DiBAC4 fluorochrome solution [bis-(1,3-dibutylbarbituric acid) trimethinoxonol] Invitrogen/Life Technologies, Carlsbad, was added (0.5 μg/mL).
# (§6) Fluorescence intensity (FI) was measured with an Accuri C6 plus flow cytometer in the FITC fluorescence channel. Growth control was used to locate the microbial cell population for fluorescence measurements. DiBAC4 dye was used to detect changes in the microbial membrane potential. […] A twofold increased fluorescence intensity (median fluorescence intensity = MFI) was considered to correspond to the depolarized microbial cells. For each subinhibitory concentration, a coloring index (CI) was calculated which represents the ratio of fluorescence intensity (FI) of treated versus untreated cells.
row,SMILES,staining index value (SI)
1,"O=C(Nc1ccccc1)ON=C1c2ccccc2-c2ccccc21 [Compound 1a, 9-(phenylcarbamoyloxymino)fluoren]",2.21
2,"Cc1cccc(NC(=O)ON=C2c3ccccc3-c3ccccc32)c1 [Compound 1b, 9-((3-methyl-phenyl)carbamoyloximino)fluoren]",3.99

# Tested on: S. aureus ATCC 25923
# Experiment: as above
# Assay type: cell-based, Staphylococcus aureus
# Details: S. aureus ATCC 25923; subinhibitory concentration tested 2.5 mg/mL; DiBAC4, 18–24 h
# Protocol: as §4, §5, §6
row,SMILES,staining index value (SI)
1,"O=C(Nc1ccccc1)ON=C1c2ccccc2-c2ccccc21 [Compound 1a, 9-(phenylcarbamoyloxymino)fluoren]",3.5
2,"Cc1cccc(NC(=O)ON=C2c3ccccc3-c3ccccc32)c1 [Compound 1b, 9-((3-methyl-phenyl)carbamoyloximino)fluoren]",8.17

# Tested on: P. aeruginosa ATCC 27892
# Experiment: as above
# Assay type: cell-based, Pseudomonas aeruginosa
# Details: subinhibitory concentration tested 2.5 mg/mL, DiBAC4, 18–24 h
# Protocol: as §4, §5, §6
row,SMILES,staining index value (SI)
1,"O=C(Nc1ccccc1)ON=C1c2ccccc2-c2ccccc21 [Compound 1a, 9-(phenylcarbamoyloxymino)fluoren]",6.68
2,"Cc1cccc(NC(=O)ON=C2c3ccccc3-c3ccccc32)c1 [Compound 1b, 9-((3-methyl-phenyl)carbamoyloximino)fluoren]",6.5

# Tested on: C. albicans ATCC 90029
# Experiment: as above
# Assay type: cell-based, Candida albicans
# Details: subinhibitory concentration tested 2.5 mg/mL, DiBAC4, 18–24 h
# Protocol: as §4, §5, §6
row,SMILES,staining index value (SI)
1,"O=C(Nc1ccccc1)ON=C1c2ccccc2-c2ccccc21 [Compound 1a, 9-(phenylcarbamoyloxymino)fluoren]",4.94
2,"Cc1cccc(NC(=O)ON=C2c3ccccc3-c3ccccc32)c1 [Compound 1b, 9-((3-methyl-phenyl)carbamoyloximino)fluoren]",2.82

# Tested on: Artemia franciscana Kellog nauplii
# Experiment: Toxicity on the Artemia franciscana Kellog crustacean species (lethality of nauplii)
# Assay type: in vivo
# Details: tested concentrations 6.2–100 μg/mL (solubility limit), 24 h
# Protocol: The oocysts (Great Salt Lake, USA) provided by S.K. Trading were grown on artificial seawater medium (Coral Marine, Grotech), dissolved in distilled water with a few minutes of sonication, at 30 g/L concentration. The test was carried out in a 24-well plate, using three replicates. Because of their low solubility, the compounds 1a–d were suspended in the culture medium using sodium alginate (0.045%) (also used a negative control), the testing being carried out at the solubility limit. The concentrations 100, 50, 25, 12.5 and 6.2 μg/mL used for each substance were obtained by successive dilutions starting from the initial suspension. Between 10 and 15 nauplii per well were collected and placed in contact with the test suspensions (1.5 mL/well). All nauplii, dead or alive, were counted and recorded within 24 h of being placed in contact with the tested suspensions. The non-linear modeling of the concentration-lethality relationship was achieved through a four-parameter logistics model (4PL), implemented in several robust variants for estimating parameters in the R package “dr4pl” [78].
row,SMILES,toxicity (in words)
1,"O=C(Nc1ccccc1)ON=C1c2ccccc2-c2ccccc21 [Compound 1a, 9-(phenylcarbamoyloxymino)fluoren]",not toxic
2,"Cc1cccc(NC(=O)ON=C2c3ccccc3-c3ccccc32)c1 [Compound 1b, 9-((3-methyl-phenyl)carbamoyloximino)fluoren]",not toxic

# Tested on: not listed separately
# Experiment: In vitro cytotoxicity assay, IncuCyte S3 live-cell analysis
# Assay type: cell-based
# Details: human, HT29 cells (colorectal adenocarcinoma); HT29, phase confluence (%), 72-h period
# Protocol: The cytotoxicity of the investigated compounds was tested using the IncuCyte Basic Analysiskit, allowing to calculate the IC50, against three tumoral cell lines, i.e., HeLa (cervical cancer cells), HT29 (colon adenocarcinoma) and MG63 (osteosarcoma). The selected metric of the concentration-response module was set on phase and confluence (%).
# In our experiments, we used colorectal adenocarcinoma HT29 (ATCC HTB-38), cervical adenocarcinoma cells HeLa (ATCC CRM-CCL2), and osteosarcoma MG63 (ATCC CRL-1427). The cells were maintained in Dulbeco’s Modified Medium (DMEM): F12 (Thermo Fisher Scientific, Waltham, MA, USA) supplemented with 10% fetal bovine serum (FBS, Thermo Fisher Scientific, Waltham, MA, USA). For the in vitro evaluation of their cytotoxicity, the new derivatives were solubilized in DMSO at a concentration of 10 mg/mL and filtered with 0.22 µm Millex-GV Filter (Merck, Darmstadt, Germany). For cytotoxicity kinetics, the IncuCyte® S3 Live-Cell Analysis System (Sartorius, AG, Goettingen, Germany) was used. Briefly, 2 × 10^4 cells seeded in 96 well plates were treated with the new derivatives in a concentration ranging between 500 μg/mL and 3.9 μg/mL. The plates were placed in the IncuCyte® S3 Live-Cell Analysis System, and five images per well were taken every six h over a 72-h period and then processed, according to kit recommendations.
row,SMILES,IC50 at 72 h [µg/mL]
1,"O=C(Nc1ccccc1)ON=C1c2ccccc2-c2ccccc21 [Compound 1a, 9-(phenylcarbamoyloxymino)fluoren]",11 ± 0.75
2,"Cc1cccc(NC(=O)ON=C2c3ccccc3-c3ccccc32)c1 [Compound 1b, 9-((3-methyl-phenyl)carbamoyloximino)fluoren]",6.33 ± 3.02

# Same assay, conditions: human, HeLa cells (cervical adenocarcinoma), phase confluence (%), 72-h period
row,SMILES,IC50 at 72 h [µg/mL]
1,"O=C(Nc1ccccc1)ON=C1c2ccccc2-c2ccccc21 [Compound 1a, 9-(phenylcarbamoyloxymino)fluoren]",7.52 ± 1.39
2,"Cc1cccc(NC(=O)ON=C2c3ccccc3-c3ccccc32)c1 [Compound 1b, 9-((3-methyl-phenyl)carbamoyloximino)fluoren]",8.5 ± 2.26

# Same assay, conditions: human, MG63 cells (osteosarcoma); MG63, phase confluence (%), 72-h period
row,SMILES,IC50 at 72 h [µg/mL]
1,"O=C(Nc1ccccc1)ON=C1c2ccccc2-c2ccccc21 [Compound 1a, 9-(phenylcarbamoyloxymino)fluoren]",31.5
2,"Cc1cccc(NC(=O)ON=C2c3ccccc3-c3ccccc32)c1 [Compound 1b, 9-((3-methyl-phenyl)carbamoyloximino)fluoren]",22 ± 2.48
